{"source": "patent US20100004248A1", "about": "“Use of a Nitric Oxide Synthase Modulator for the Treatment of Cardiac Indications” (priority 2005, published 2010)", "key": {"[1]": {"tested_on": "intact heart, beta-adrenergic stimulation by ISO", "test": "Contractility response of intact heart to isoproterenol (ISO)", "type": "in vivo, mouse", "excerpt": "Regulation of acute beta-adrenergic stress by PDE5a inhibition (resulting in a rise in cGMP and activation of protein kinase G) requires the activity of nitric oxide synthase (NOS). […] This can be offset by chronic distal activation of the NO target protein soluble guanylate cyclase 9sGC). At the left are bars depicting the contractility response of an intact heart to ISO before and after co-administration of SIL. The ISO response is normally blunted by nearly 80%. The middle bars show data from mice with NOS inhibited by L-NAME (1 mg/L in drinking water). […] However, if one continues to treat hearts with the soluble guanylate cyclase activator (BAY 41-8543) for a week-all the while continuing NOS inhibition with L-NAME, the ability of SIL to suppress adrenergic stimulation is restored."}, "[2]": {"tested_on": "C57/BL6 WT mice subjected to TAC pressure overload", "test": "Body weight and heart weight in mice subjected to transverse aortic constriction (TAC)", "type": "in vivo, mouse", "conditions": "TAC 3 weeks, oral co-treatment 1 mg/g food, mean ± sem", "excerpt": "Male NOS3 null mice (NOS3^−/−) and C57/BL6 WT controls (8-11 weeks, Jackson Labs, Bar Harbor, Me., USA) were used. Pressure overload was produced by transverse aorta constriction (TAC). Briefly, The aortic arch was isolated by entering the extrapleural space between the second and third rib, and afterwards the transverse aorta was isolated between the right and left carotid arteries. A 7-0 prolene suture ligature was tied around the transverse aorta against a 27-gauge needle to produce a 65-70% constriction after the removal of the needle. After closing the chest, animals were extubated, and a subcutaneous injection of morphine sulphate 0.2 mg, was administered before they returned to their cages. Animal's ventilatory and circulatory status was checked every 30 minutes during the first 2 hours. Sham-operated mice underwent the same operation except for aortic constriction. […] Animals were randomized to receive placebo or BH4 (120 mg/kg/d) for the next 5 weeks. At the end of the study, i.e. at 9 weeks, animal were sacrificed to receive tissue or underwent in vivo PV-loop analysis. […] Control mice were subject to sham operations, and animals were studied 3-9 weeks following surgery. […]"}, "[3]": {"tested_on": "C57/BL6 WT mice subjected to TAC pressure overload", "test": "In vivo hemodynamics, PV loop analysis, in TAC mice", "parameters": "species or system mouse", "conditions": "TAC 3 weeks, oral co-treatment 1 mg/g food, mean ± sem", "excerpt": "(§1) Male NOS3 null mice (NOS3^−/−) and C57/BL6 WT controls (8-11 weeks, Jackson Labs, Bar Harbor, Me., USA) were used. Pressure overload was produced by transverse aorta constriction (TAC). Briefly, The aortic arch was isolated by entering the extrapleural space between the second and third rib, and afterwards the transverse aorta was isolated between the right and left carotid arteries. A 7-0 prolene suture ligature was tied around the transverse aorta against a 27-gauge needle to produce a 65-70% constriction after the removal of the needle. After closing the chest, animals were extubated, and a subcutaneous injection of morphine sulphate 0.2 mg, was administered before they returned to their cages. Animal's ventilatory and circulatory status was checked every 30 minutes during the first 2 hours. Sham-operated mice underwent the same operation except for aortic constriction. […] Animals were randomized to receive placebo or BH4 (120 mg/kg/d) for the next 5 weeks. At the end of the study, i.e. at 9 weeks, animal were sacrificed to receive tissue or underwent in vivo PV-loop analysis. […] Control mice were subject to sham operations, and animals were studied 3-9 weeks following surgery. An additional group of wild-type animals were subjected to TAC for 3 weeks while co-treated with oral tetrahydrobiopterin (BH4) (Sigma-Aldrich) (1 mg/g food) mixed in their rodent chow, providing 5 mg/day based on 4-6 g daily diet^8.\n(§2) Two different BH4 treatment protocols are used. For experiments related to FIGS. 1-7, where prevention of cardiac indications is described BH4 is provided orally as a treatment starting 2 days after TAC surgery (once mice are again eating oral diet). For those figures related to treatment of established cardiac indications, FIGS. 8-23, BH4 is provided orally but this is delayed for 4 weeks to establish substantial cardiac hypertrophy, remodeling, and NOS-uncoupling. Then the treatment is provided for the remaining 5 week period.\nIn vivo left ventricular (LV) function was assessed by pressure-volume catheter^12,13. Mice were anesthetized with 1-2% isoflurane, urethane ([…], i.p.), etomidate (5-10 mg/kg, i.p.), and morphine (1-2 mg/kg, i.p.), underwent tracheostomy, and were ventilated with 6-7 μL/g tidal volume and 130 breaths/min. Volume expansion (12.5% human albumin, 50-100 μL over 5 min) was provided through a 30 G cannula via the right external jugular vein. The left ventricular apex was exposed through an incision between the 7-8th rib, and a catheter, specifically a 1.4 Fr PV catheter (SPR 839, Millar Instruments, Inc.), was advanced through the apex to lie along the longitudinal axis. Absolute volume was calibrated, and pressure-volume data was measured at steady state and during transient reduction of venous return as reported^13"}, "[4]": {"tested_on": "C57/BL6 WT mice subjected to TAC pressure overload", "test": "Transthoracic echocardiography in conscious TAC mice", "type": "in vivo, mouse", "excerpt": "as §1, §2\nFor folate studies, C57/BL6 WT were treated with folate (10 mg/kg/day) or with placebo for a 9 week period during which time the hearts were exposed to TAC.\nIn vivo cardiac morphology was assessed by transthoracic echocardiography (Acuson Sequoia C256, 13 MHz transducer, Siemens) in conscious mice. M-mode left ventricular (LV) end-systolic and end-diastolic dimensions were averaged from 3-5 beats. Left ventricular ejection fraction (LVEF) and percent fractional shortening (% FS) were calculated as: LVEF=[(LVEDD)^3-(LVESD)^3]/(LVEDD)^3×100; % FS=(LVEDD−LVESD)/LVEDD×100. Wall thickness of lateral freewall and intraventricular septum were averaged. Studies and analysis were performed blinded to heart condition."}, "NOS": {"biological_target": "T1, NOS (Mus musculus, UniProt P70313)", "T1 construct": "from tissue; host or cells: mouse left ventricular tissue homogenate", "T1 sequence (P70313 2-1202)": "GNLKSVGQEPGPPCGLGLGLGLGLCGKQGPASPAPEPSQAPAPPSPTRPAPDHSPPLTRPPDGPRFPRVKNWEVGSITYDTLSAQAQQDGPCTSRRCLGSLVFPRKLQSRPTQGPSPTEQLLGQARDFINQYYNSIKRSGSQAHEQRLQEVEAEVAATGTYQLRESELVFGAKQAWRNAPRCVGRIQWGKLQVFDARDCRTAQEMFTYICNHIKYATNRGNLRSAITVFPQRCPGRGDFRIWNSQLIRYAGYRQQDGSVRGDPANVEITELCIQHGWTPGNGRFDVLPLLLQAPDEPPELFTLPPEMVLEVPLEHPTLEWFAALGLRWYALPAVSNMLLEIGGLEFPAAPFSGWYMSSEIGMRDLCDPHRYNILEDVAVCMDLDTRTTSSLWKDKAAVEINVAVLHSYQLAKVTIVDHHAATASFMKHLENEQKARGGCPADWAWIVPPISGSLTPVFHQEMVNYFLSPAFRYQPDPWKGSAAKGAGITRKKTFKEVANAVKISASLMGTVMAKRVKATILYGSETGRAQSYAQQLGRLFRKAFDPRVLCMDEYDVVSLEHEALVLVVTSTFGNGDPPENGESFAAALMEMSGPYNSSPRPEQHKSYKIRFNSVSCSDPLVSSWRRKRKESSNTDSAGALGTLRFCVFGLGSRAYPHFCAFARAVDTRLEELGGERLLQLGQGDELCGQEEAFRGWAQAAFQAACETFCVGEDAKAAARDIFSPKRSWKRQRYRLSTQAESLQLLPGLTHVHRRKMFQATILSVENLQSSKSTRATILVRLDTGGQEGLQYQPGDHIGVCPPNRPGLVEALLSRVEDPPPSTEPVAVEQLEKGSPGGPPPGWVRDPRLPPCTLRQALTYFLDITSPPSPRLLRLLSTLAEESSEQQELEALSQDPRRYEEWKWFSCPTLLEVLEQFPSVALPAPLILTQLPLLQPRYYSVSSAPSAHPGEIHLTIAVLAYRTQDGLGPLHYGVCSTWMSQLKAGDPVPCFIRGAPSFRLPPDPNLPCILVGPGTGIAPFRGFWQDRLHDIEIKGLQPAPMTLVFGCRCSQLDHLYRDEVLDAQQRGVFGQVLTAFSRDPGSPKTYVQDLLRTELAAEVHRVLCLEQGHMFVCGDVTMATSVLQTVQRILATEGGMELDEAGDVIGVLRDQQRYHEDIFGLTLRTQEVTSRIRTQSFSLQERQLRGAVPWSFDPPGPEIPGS", "test": "Luminol chemiluminescence of heart tissue extracts with or without co-incubation with L-NAME (NOS-derived O2−)", "type": "biochemical", "conditions": "1 mM co-incubation", "experimental": "Given the decline in NO-synthetic activity, it was next tested whether NOS-derived O2^− increased with TAC. Tissue extracts were subjected to luminol chemiluminescence assay with or without co-incubation with the NOS inhibitor L-NAME (1 mM). The relative contribution of NOS was minimal under basal conditions, but rose markedly (˜50%) after 3- and 9-weeks TAC (FIG. 6D). Control data in NOS3^−/− hearts confirmed this to be from NOS3 and not the other NOS isoforms.\nReactive oxygen species generation was examined by several independent methods. Superoxide production in left ventricular tissue homogenates was determined by luminol-enhanced chemiluminescence (EMD Biosciences). Flash frozen myocardium was homogenized in iced PBS buffer, centrifuged, and the precipitate re-suspended in assay buffer to a final concentration of 100 μM luminol following manufacturer's instructions. Phorbol-12-myristate-13-acetate or other oxidase stimulators were not used in the assay. Data were normalized by sample weight. […] Nitrotyrosine was also quantitatively assessed by ELISA assay (Oxis International)."}, "[5]": {"conditions": "healthy subjects, cited from earlier work"}, "[6]": {"tested_on": "Adult myocytes isolated from wild-type C57/B16 mouse hearts", "test": "Sarcomere shortening of isolated adult myocytes exposed to isoproterenol", "type": "cell-based", "conditions": "myocytes from 3-4 weeks TAC hearts first treated with the anti-oxidant"}, "[7]": {"conditions": "WT mice, TAC 3 weeks, oral co-treatment 1 mg/g food, mean ± sem"}, "[8]": {"conditions": "TAC up to 9 weeks, folate 10 mg/kg/day vs placebo, p<0.05"}}}
{"smiles": "Nc1nc(-c2nn(Cc3ccccc3F)c3ncccc23)nc(N)c1N1CCOCC1", "note": "[BAY 41-8543]", "values": [{"measurement": "restoration of the ability of SIL to suppress ISO stimulated contractility", "setting": "[1]; acute administration of sGC activator, L-NAME for 1 week", "value": "does not reverse this"}, {"measurement": "restoration of the ability of SIL to suppress adrenergic stimulation", "setting": "[1]; sGC activator for a week while continuing L-NAME", "value": "restored"}]}
{"smiles": "C[C@H](O)[C@H](O)[C@H]1CNc2nc(N)[nH]c(=O)c2N1", "note": "[BH4, (6R)-5,6,7,8-tetrahydrobiopterin]", "values": [{"measurement": "Heart Weight (HW)", "setting": "[2]", "value": "170.3 ± 3.9", "unit": "mg"}, {"measurement": "Arterial Elastance", "setting": "[3]", "value": "10.6 ± 0.7", "unit": "mmHg/μL"}, {"measurement": "Ejection Fraction", "setting": "[3]", "value": "78.4 ± 5.8", "unit": "%"}, {"measurement": "End-diastolic Volume", "setting": "[3]", "value": "20.5 ± 1.9", "unit": "µL"}, {"measurement": "End-systolic Elastance", "setting": "[3]", "value": "115.1 ± 9.6", "unit": "mmHg/μL · g"}, {"measurement": "End-systolic Volume", "setting": "[3]", "value": "4.8 ± 1.7", "unit": "µL"}, {"measurement": "Heart RateR", "setting": "[3]", "value": "603.3 ± 22.9", "unit": "min⁻¹"}, {"measurement": "LV Systolic Pressure", "setting": "[3]", "value": "193.0 ± 1.7", "unit": "mmHg"}, {"measurement": "Peak Power Index", "setting": "[3]", "value": "75.5 ± 10.5", "unit": "mmHg/s"}, {"measurement": "Tau", "setting": "[3]", "value": "3.5 ± 0.2", "unit": "ms"}, {"measurement": "dPdtmn", "setting": "[3]", "value": "−15743 ± 1325", "unit": "mmHg/s"}, {"measurement": "dPdtmx", "setting": "[3]", "value": "17003 ± 1125", "unit": "mmHg/s"}, {"measurement": "Fractional Shortening", "setting": "[4]; [7]", "value": "61.7 ± 1.7", "unit": "%"}, {"measurement": "LV diameter Diastole", "setting": "[4]; [7]", "value": "2.87 ± 0.06", "unit": "mm"}, {"measurement": "LV diameter Systole", "setting": "[4]; [7]", "value": "1.12 ± 0.06", "unit": "mm"}, {"measurement": "Wall thickness", "setting": "[4]; [7]", "value": "1.09 ± 0.03", "unit": "mm"}]}
{"smiles": "COC(=O)[C@@H](N)CCCNC(=N)N[N+](=O)[O-]", "note": "[L-NAME]", "values": [{"measurement": "inhibition of luminol chemiluminescence", "setting": "NOS; 3 weeks and 9 weeks WT-TAC heart lysates", "value": "~50", "unit": "%"}, {"measurement": "inhibition of luminol chemiluminescence", "setting": "NOS; baseline (sham) heart lysates", "value": "< 15", "unit": "%"}]}
{"smiles": "CN1CC(=O)N2[C@H](c3ccc4c(c3)OCO4)c3[nH]c4ccccc4c3C[C@@H]2C1=O", "note": "[Tadalafil, tadalafil]", "values": [{"measurement": "time of peak plasma concentration post-dose", "setting": "[5]; oral 20 mg dose", "value": "two"}, {"measurement": "apparent oral clearance (CL/F)", "setting": "[5]; oral", "value": 2.48, "unit": "L/h"}, {"measurement": "mean elimination half-life", "setting": "[5]; oral", "value": "about 17.5 h"}]}
{"smiles": "Nc1nc2ncc(CNc3ccc(C(=O)N[C@@H](CCC(=O)O)C(=O)O)cc3)nc2c(=O)[nH]1", "note": "[folate, folic acid]", "values": [{"measurement": "LV mass", "setting": "[4]; [8]", "value": "reduced"}, {"measurement": "cardiac dilation", "setting": "[4]; [8]", "value": "diminished"}, {"measurement": "Ejection Fraction", "setting": "[4]; TAC up to 9 weeks, folate 10 mg/kg/day vs placebo, p=0.05", "value": "significantly improved"}]}
{"smiles": "N[C@@H](CCC(=O)N[C@@H](CS)C(=O)NCC(=O)O)C(=O)O", "note": "[reduced glutathione]", "values": [{"measurement": "capacity of PDE5a inhibition to blunt the beta-adrenergic response after anti-oxidant pre-treatment", "setting": "[6]", "value": "recovered"}]}
